Consider two compounds from PMC11242993, “Evaluation of the Therapeutic Potential of Sulfonyl Urea Derivatives as Soluble Epoxide Hydrolase (sEH) Inhibitors” (Molecules, 2024).

Series [1] is described as follows: Microsomal stability. The following applies: pH 7.4, human liver microsomes; for remaining at 1 h, 2 μM: read-out: Human Metabolic Stability % Remaining after 1 h; for half-life at 2 μM: read-out: Human Metabolic Stability Half Life. Format: in vitro ADME. Here is the method: Human microsomal incubations were carried out in 96-well plates in 5 aliquots of 30 μL each (one for each time point). Human liver microsomal incubation medium comprised of phosphate buffer (100 mM, pH 7.4), MgCl2 (3.3 mM), NADPH (3 mM), glucose-6-phosphate (5.3 mM), glucose-6-phosphate dehydrogenase (0.67 units/mL) with 0.42 mg of liver microsomal protein per ml. In the control reactions, the NADPH-cofactor system was substituted with phosphate buffer. Test compounds (2 μM, final solvent concentration 1.6%) were incubated with microsomes at 37 °C and shaken at 100 rpm. Each reaction was performed in duplicates. Five time points over 40 min were analyzed. The reactions were stopped by adding 5 volumes of methanol containing the internal standard to the incubation aliquots, followed by protein sedimentation by centrifuging at 5500 rpm for 4 min. Supernatants were analyzed using the HPLC system coupled with a tandem mass spectrometer.

Series [2] can be described thus: Caco-2 permeability. Format: in vitro ADME. The following applies: human, Caco-2, pH 7.4. Here is the method: Caco-2 cells were cultured in 75 cm^2 flasks to 80–90% confluence according to the ATCC and Millipore recommendations in a humidified atmosphere at 37 °C and 5% CO2. Cells were detached with a trypsin/EDTA solution, resuspended in the complete medium containing DMEM high glucose ([…]) with L-glutamine (4 mM) supplemented with 10% heat-inactivated Fetal Bovine Serum, 1% non-essential amino acids, and 730 nM puromycin, and seeded at a density of 5 × 10^5 cells in a 75 cm^2 flask. After 5 days, cells were trypsinized and resuspended in the complete medium to a final concentration of 600 × 10^3 cells/mL. Of the cell suspension, 400 µL was added to each well of an HTS 24-Multiwell Insert System and 25 mL of prewarmed complete medium was added to the feeder tray. Caco-2 cells were incubated in the Multiwell Insert System for 6–10 days before the transport experiments. The medium in the filter plate and feeder tray was refreshed every other day. Prior to the transport experiment, the integrity of the monolayer was verified by measuring the transepithelial electrical resistance (TEER) for every well using a Millicell-ERS system ohm meter. The final TEER values were within the range of 150–600 Ω × cm^2, as required for the assay conditions. The 24-well insert plate was removed from its feeder plate and placed in a new sterile 24-well transport analysis plate. The inserts were washed with PBS after medium aspiration. Ketoprofen, atenolol, digoxin, and quinidine were used as reference compounds.
To determine transport rates in the basolateral (B)-to-apical (A) direction, 1000 μL of the test compound solutions was added into the wells of the transport analysis plate, and the wells in the filter plate were filled with 300 μL of buffer (apical compartment).
The effect of the inhibitor on the Pgp-mediated transport of the tested compounds was assessed by determining the bidirectional transport in the presence or absence of verapamil. The Caco-2 cells were preincubated for 30 min at 37 °C with 100 μM of verapamil in both apical and basolateral compartments. After removal of the preincubation medium, the test compounds with verapamil (100 μM) in transport buffer were added in donor wells, while the receiver wells were filled with the appropriate volume of transport buffer with 100 μM of verapamil. The final amounts of test and reference compounds were 10 μM each. The plates were incubated for 90 min at 37 °C under continuous shaking at 100 rpm. Aliquots of 75 μL were taken from the donor and receiver compartments for LC–MS/MS analysis. All samples were mixed with 2 volumes of acetonitrile followed by protein sedimentation by centrifuging at 10,000 rpm for 10 min. Supernatants were analyzed using the HPLC system coupled with a tandem mass spectrometer.

Series [3] in a line: In vivo pharmacokinetic experiment. On the set-up: species or system C57BL/6J mice. The settings on record: mice, 10 mg/kg; for Cmax (in words): oral. The method, then:
Twenty 8–9-week-old male C57BL/6J mice were taken for the in vivo pharmacokinetic experiment. They were divided into four groups, each containing five mice. Each group was used for either oral or intraperitoneal administration of compound 4f or 15a. Both the compounds were reconstituted in 5% DMSO, 5% TWEEN 80 in saline water (pH = 7.4). The mice were orally and intraperitoneally administered compounds at 10 mg/kg dose. Blood samples were collected at 0, 0.5, 1, 2, 4, 6, and 24 h after administration of the compound, and serum was isolated with the compound. For the pharmacokinetic study, 10 μL of serum samples from mice were extracted with a 2:1 mixture of LC/MS-grade chloroform and methanol, followed by intermittent vortexing, and then centrifuged at 4000 rpm for 10 min at 4 °C. Thereafter, the supernatant was collected and analyzed by LC−MS/MS to measure the concentrations of compounds 4f and 15a in the serum.

A short description of series [4]: Aqueous (kinetic, nephelometric) solubility in PBS. The format is physicochemical. Here is the method: Aliquots of 5 µL of 20.00 mM, 10.00 mM, 5.00 mM, 2.50 mM, 1.25 mM, 0.63 mM, 0.31 mM, 0.16 mM DMSO stock solutions of the control (highly soluble 2′-deoxy-5-fluorouridine and insoluble raloxifen hydrochloride) and the test compounds were loaded in 96-well microplates with clear flat bottoms in duplicates. Then, 250 µL of PBS was dispensed into each well using a Multidrop Combi dispenser to reach the concentrations of 400.0 µM, 200.0 µM, 100.0 µM, 50.0 µM, 25.0 µM, 12.5 µM, 6.25 µM, 3.125 µM for each compound with 2% final DMSO. Then, the resulting solutions were incubated for 15 min at room temperature. The effective range of this assay is approximately 5–200 µM. The solubility of each compound was calculated using the dedicated fitting algorithm. The physical base of nephelometric titration fitting is based on the quick increase in turbidity when a concentration of the tested compound reaches its solubility level. An intersection of the regression line of the high-level turbidity points with the calculated baseline was plotted for each compound. The baseline is a linear regression line plotted for fully soluble control compound DOFU. Each concentration point signal of the test article was compared with the corresponding signal of DOFU. […]

Structures are written as SMILES. ≈ marks a conversion by molar mass, not a printed value.

With `O=C(NC12CC3CC(CC(C3)C1)C2)NS(=O)(=O)c1ccc(OC(F)(F)F)cc1` [Compound 4f], in series [1], the fraction remaining at 1 h, 2 μM was determined as 80% and the half-life at 2 μM was 1.77 h. Also, the Papp A→B at 90 min, 10 µM in series [2] (A to B, read-out: Caco-2 Permeability Apical to Basal (Papp)) stood at 14.9 ×10⁻⁶ cm/s. Further, in series [2] (B to A, read-out: Caco-2 Permeability Basal to Apical (Papp)), the Papp B→A at 90 min, 10 µM was 12.6 ×10⁻⁶ cm/s. Also, the half-life in series [3] (male, C57BL/6J, mouse, serum, other: oral and intraperitoneal, oral and intraperitoneal administration, read-out: plasma half-life) was less than 2 h. For the same compound, the “Cmax (in words)” value in series [3] is listed as “better than that of 15a”. Moreover, in series [4] (PBS, pH 7.4, aqueous buffer, kinetic from dmso stock, read-out: Aq. Solubility pH = 7.4), the solubility at 15 min was determined as 53 µg/mL (≈ 127 µM). Moreover, the “aqueous solubility (in words)” value in series [4] (pH 7.4) is recorded as “moderate aqueous solubility”.
For `O=C(NC12CC3CC(CC(C3)C1)C2)NS(=O)(=O)c1ccc2ccccc2c1` [Compound 4l], in series [1], the amount remaining at 1 h, 2 μM amounted to 45% and the half-life at 2 μM worked out at 0.557 h. In addition, the “Cmax (in words)” value in series [3] is “promising Cmax value”.
